Assay results: patent US4771071A, “Antihypercholesterolemic compounds” (Merck & Co., Inc., priority 1986, dated 1988)

Experiments:
[1] = Stability of free hydroxy acid on standing; type: physicochemical
Method: The sodium salt of the compound II from Example 11 is redissolved in 2 ml of ethanol-water (1:1) and added to 10 ml of 1N hydrochloric acid from which the hydroxy acid is extracted with ethyl acetate. The latter solvent is washed once with water, dried, and removed in vacuo with a bath temperature not exceeding 30° C.

HMG-CoA reductase = HMG-CoA reductase inhibition assay (in vitro); type: biochemical; settings: IC50 compared with compactin determined simultaneously, compactin assigned 100; tested as sodium salt of dihydroxy acid form; solubilized rat liver microsomal enzyme
Method: The intrinsic HMG-CoA reductase inhibition activityof the claimed compounds is measured in the in vitro protocol published in J. Med. Chem., 28, p. 347-358 (1985) and described below:
Male Holtzman Sprague-Dawley rats (225-250 g) were kept on reversed lighting and fed Purina rat chow containing 3% cholestyramine for 7 days preceding their sacrifice by CO2 asphyxiation. Livers were removed 6 hours into the dark cycle and used immediately to prepare microsomes. […]
Test compounds or compactin (after first being converted to the sodium salt of their dihydroxy acid form in situ by addition of 1N NaOH (1 equivalent) were added to the assay system in 10-μL volumes at multiconcentration levels. After a 40-minutes incubation at 37° C. with shaking and exposure to air, the reaction was stopped by the addition of 0.4 mL of 8N HCl. After an additional 30-minute incubation at 37° C. to ensure the complete lactonization of mevalonic acid to mevalonolactone, 0.2 ml of the mixture was added to an 0.5×5.0 cm column containing 100-200 mesh BioRex 5, chloride form (Bio-Rad), wetted with distilled water, as described by Alberts et al., [J. Proc. Natl. Acad. Sci. U.S.A., 1980, 77, 3957]. […] Five milliliters of Aquasol-2 (New England Nuclear) was added to each vial, and radioactivity was measured in a Packard Tri Carb Prias scintillation counter. […]

Row | Compound | stability of hydroxy acid (reversion to lactone) [1] | Relative Potency (HMG-CoA reductase)
1 | COC(=O)C(C)(C)C(=O)O[C@H]1C[C@@H](C)C=C2C=C[C@H](C)[C@H](CC[C@@H](O)C[C@@H](O)CC(=O)O)[C@H]21 [Example 13] | slowly reverts to the lactone on standing | 
2 | 6(R)-[2-[8(S)-(2,2-dimethyl-3-methoxy-3-oxopropionyloxy)-2(S),6(R)-dimethyl-1,2,6,7,8,8a(R)-hexahydronaphthyl-1(S)]ethyl]-4(R)-hydroxy-3,4,5,6-tetrahydro-2H-pyran-2-one [Example 1] |  | 87
3 | 6(R)-[2-[8(S)-(2,2-Dimethyl-3-methoxycarbonylpropionyloxy)-2(S),6(R)-dimethyl-1,2,6,7,8,8a-(R)-hexahydronaphthyl-1(S)]ethyl]-4(R)-hydroxy-3,4,5,6-tetrahydro-2H-pyran-2-one [Example 2] |  | 59
